pEC50, pIC50: −log10 of the molar value.
Target: T1, Human recombinant DHX9 protein (Homo sapiens, UniProt Q08211)
T1 construct: purchased Viva
Test: DHX9 ATPase assay (ADP-Glo biochemical assay)
Conditions: not given

T1 sequence (Q08211 whole entry): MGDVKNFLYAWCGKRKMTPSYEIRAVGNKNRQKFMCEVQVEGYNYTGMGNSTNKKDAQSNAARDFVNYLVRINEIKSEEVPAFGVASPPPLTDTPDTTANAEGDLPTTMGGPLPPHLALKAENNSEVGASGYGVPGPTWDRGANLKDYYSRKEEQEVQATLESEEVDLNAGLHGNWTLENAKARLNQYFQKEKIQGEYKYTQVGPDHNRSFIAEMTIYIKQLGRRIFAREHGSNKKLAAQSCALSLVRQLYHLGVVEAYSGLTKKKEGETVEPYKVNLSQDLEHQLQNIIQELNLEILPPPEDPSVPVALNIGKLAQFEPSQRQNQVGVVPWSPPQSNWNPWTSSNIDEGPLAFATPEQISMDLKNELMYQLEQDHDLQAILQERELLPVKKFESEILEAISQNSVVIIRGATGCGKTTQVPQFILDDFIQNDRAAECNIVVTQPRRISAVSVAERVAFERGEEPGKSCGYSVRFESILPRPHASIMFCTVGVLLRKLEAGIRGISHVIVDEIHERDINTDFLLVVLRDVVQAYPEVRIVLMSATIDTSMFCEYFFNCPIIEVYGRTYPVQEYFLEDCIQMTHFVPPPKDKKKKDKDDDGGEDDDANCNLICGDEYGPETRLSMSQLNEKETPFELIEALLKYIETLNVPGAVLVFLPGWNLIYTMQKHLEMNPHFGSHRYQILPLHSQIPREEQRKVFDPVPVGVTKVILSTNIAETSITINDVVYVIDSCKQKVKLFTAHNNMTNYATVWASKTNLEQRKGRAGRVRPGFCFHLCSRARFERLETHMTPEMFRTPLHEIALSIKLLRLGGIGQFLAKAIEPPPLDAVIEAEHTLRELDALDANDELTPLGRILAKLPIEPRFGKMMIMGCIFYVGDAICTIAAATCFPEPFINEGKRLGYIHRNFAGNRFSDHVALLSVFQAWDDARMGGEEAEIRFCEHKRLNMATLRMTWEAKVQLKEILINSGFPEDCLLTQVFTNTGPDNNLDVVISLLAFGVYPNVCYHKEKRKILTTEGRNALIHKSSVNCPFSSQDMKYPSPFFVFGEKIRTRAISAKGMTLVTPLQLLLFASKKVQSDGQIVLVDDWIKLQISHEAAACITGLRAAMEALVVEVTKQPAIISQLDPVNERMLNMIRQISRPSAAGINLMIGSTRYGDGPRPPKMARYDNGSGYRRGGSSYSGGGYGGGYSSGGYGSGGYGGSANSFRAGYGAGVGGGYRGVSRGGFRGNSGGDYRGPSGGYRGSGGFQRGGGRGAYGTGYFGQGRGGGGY

Compound | pIC50
CS(=O)(=O)Nc1cccc(NC(=O)c2cc(-c3ccccc3)cs2)n1 [Example 156, N-(6-methanesulfonamidopyridin-2-yl)-4-phenylthiophene-2-carboxamide] | 5.72

Same assay, conditions: maximum inhibition in ATPase assay; 10 μM Aurintricarboxylic acid = 100%

Compound | DHX9 Biochemical Max Inhibition [%]
CS(=O)(=O)Nc1cccc(NC(=O)c2cnn(-c3ccccc3)c2)c1 [Example 1] | 71.6
Cc1cc(C)nc(-n2nc(C(=O)Nc3cccc(NS(C)(=O)=O)c3)cc2C)n1 [Example 15] | 70.4
CS(=O)(=O)Nc1cccc(NC(=O)c2csc(-c3nnc[nH]3)n2)c1 [Example 33] | 65.4
CS(=O)(=O)Nc1cccc(NC(=O)c2cc(-c3cccc(C(N)=O)c3)cs2)c1 [Example 50] | 66.5
CS(=O)(=O)Nc1cccc(NC(=O)c2cc(C(=O)Nc3cccc(OC(F)(F)F)c3)cs2)c1 [Example 120] | 70.4
CS(=O)(=O)Nc1cccc(NC(=O)c2cc(C(=O)Nc3cccc4c3CCO4)cs2)c1 [Example 123] | 68.3
CS(=O)(=O)Nc1cccc(NC(=O)c2cc(C(=O)NCc3ccc(CN4CCOCC4)cc3)cs2)c1 [Example 124] | 66.5
CS(=O)(=O)Nc1cccc(NC(=O)c2cc(C(=O)Nc3ccc(-c4ccncc4)cc3)cs2)c1 [Example 128] | 64.6
Cn1c(=O)n(C)c2cc(NC(=O)c3csc(C(=O)Nc4cccc(NS(C)(=O)=O)c4)c3)ccc21 [Example 131] | 65.8
COCc1cccc(NC(=O)c2csc(C(=O)Nc3cccc(NS(C)(=O)=O)c3)c2)c1 [Example 134] | 66.9
CS(=O)(=O)Nc1cccc(NC(=O)c2cc(C(=O)NC3CCc4ccccc43)cs2)c1 (stereo not drawn) [Example 136] | 72.9
CNC(=O)c1ccc(NC(=O)c2csc(C(=O)Nc3cccc(NS(C)(=O)=O)c3)c2)cc1 [Example 139] | 68.9
CS(=O)(=O)Nc1cccc(NC(=O)c2cc(C(=O)NCCc3c[nH]c4ccccc34)cs2)c1 [Example 140] | 70.1
CS(=O)(=O)Nc1cccc(NC(=O)c2cc(C(=O)NCc3nc4ccccc4[nH]3)cs2)c1 [Example 141] | 66.3
COc1ccc(OC)c(CCNC(=O)c2csc(C(=O)Nc3cccc(NS(C)(=O)=O)c3)c2)c1 [Example 142] | 72.6
CS(=O)(=O)Nc1cccc(NC(=O)c2cc(C(=O)NCc3n[nH]c4ccccc34)cs2)c1 [Example 144] | 65.9
CS(=O)(=O)Nc1cccc(NC(=O)c2cc(C(=O)NCc3ccc4[nH]ccc4c3)cs2)c1 [Example 145] | 67.7
CS(=O)(=O)Nc1cccc(NC(=O)c2cc(C(=O)Nc3ccc(CCO)cc3)cs2)c1 [Example 149] | 69.8
Cc1cc(C(=O)Nc2cccc(NS(C)(=O)=O)c2)nn1Cc1ccccc1 [Example 154, 1-benzyl-N-(3-methanesulfonamidophenyl)-5-methyl-1H-pyrazole-3-carboxamide] | 68.4
CS(=O)(=O)Nc1cccc(NC(=O)c2cc(NCc3ccccc3)cs2)c1 [Example 155, 4-(benzylamino)-N-(3-(methylsulfonamido)phenyl)thiophene-2-carboxamide] | 72.3
CS(=O)(=O)Nc1cccc(NC(=O)c2cc(-c3ccccc3)cs2)n1 [Example 156, N-(6-methanesulfonamidopyridin-2-yl)-4-phenylthiophene-2-carboxamide] | 63.7
CS(=O)(=O)Nc1cccc(NC(=O)c2cc(C(=O)NCCC3CC3)cs2)c1 [Example 162] | 68.5

Next, values leading:

DHX9 Biochemical Max Inhibition [%] | Compound
83.3 | CS(=O)(=O)Nc1cccc(NC(=O)c2ccn(-c3c(F)cccc3F)n2)c1 [Example 12]
72 | CC(=O)c1ccc(S(=O)(=O)Nc2ccc(C(=O)Nc3cccc(NS(C)(=O)=O)c3)cc2)cc1 [Example 20]
80.3 | CS(=O)(=O)Nc1cccc(NC(=O)c2ccc(N3CCCC3)cc2)c1 [Example 31]
72.8 | CS(=O)(=O)Nc1cccc(NC(=O)c2cccc(-n3cccn3)c2)c1 [Example 40]
61.2 | CS(=O)(=O)Nc1cccc(NC(=O)c2cnn(-c3ccccn3)c2)c1 [Example 41]
47.2 | CS(=O)(=O)Nc1cccc(NC(=O)c2cc(-c3cccs3)ccn2)c1 [Example 44]
70.4 | CS(=O)(=O)Nc1cccc(NC(=O)c2cc(-c3ccc(F)cc3)cs2)c1 [Example 53]
75 | CS(=O)(=O)Nc1cccc(NC(=O)c2cc(C(=O)Nc3ccccc3Oc3ccccc3)cs2)c1 [Example 115]
74.5 | CS(=O)(=O)Nc1cccc(NC(=O)c2cc(C(=O)NCc3ccc(N4CCOCC4)cc3)cs2)c1 [Example 116]
52.7 | CS(=O)(=O)Nc1cccc(NC(=O)c2cc(C(=O)Nc3ccc(Oc4ccccc4)cc3)cs2)c1 [Example 117]
66.2 | CC(C)Oc1ccc(NC(=O)c2csc(C(=O)Nc3cccc(NS(C)(=O)=O)c3)c2)cc1 [Example 118]
68.9 | CC(C)Oc1cccc(NC(=O)c2csc(C(=O)Nc3cccc(NS(C)(=O)=O)c3)c2)c1 [Example 121]
69.7 | CS(=O)(=O)Nc1cccc(NC(=O)c2cc(C(=O)Nc3ccc(OCCN4CCOCC4)cc3)cs2)c1 [Example 122]
71.7 | COc1cc(Cl)cc(NC(=O)c2csc(C(=O)Nc3cccc(NS(C)(=O)=O)c3)c2)c1 [Example 125]
68.3 | CC(C)(C)NC(=O)c1ccc(NC(=O)c2csc(C(=O)Nc3cccc(NS(C)(=O)=O)c3)c2)cc1 [Example 127]
67.2 | CS(=O)(=O)Nc1cccc(NC(=O)c2cc(C(=O)Nc3cnc4ccccn34)cs2)c1 [Example 129]
69.2 | COc1ccc(NC(=O)c2csc(C(=O)Nc3cccc(NS(C)(=O)=O)c3)c2)cc1 [Example 130]
70.3 | CS(=O)(=O)Nc1cccc(NC(=O)c2cc(C(=O)Nc3cccc(-c4cccnc4)c3)cs2)c1 [Example 133]
65.6 | CC(C)Oc1ccccc1NC(=O)c1csc(C(=O)Nc2cccc(NS(C)(=O)=O)c2)c1 [Example 135]
76.6 | CS(=O)(=O)Nc1cccc(NC(=O)c2cc(C(=O)Nc3ccccc3CC#N)cs2)c1 [Example 138]
73.3 | CS(=O)(=O)Nc1cccc(NC(=O)c2cc(C(=O)Nc3ccccc3CCO)cs2)c1 [Example 143]
71.2 | CS(=O)(=O)Nc1cccc(NC(=O)c2cc(C(=O)Nc3nc4ccccc4[nH]3)cs2)c1 [Example 146]
64.7 | Cc1nc(-c2cccc(NC(=O)c3csc(C(=O)Nc4cccc(NS(C)(=O)=O)c4)c3)c2)cs1 [Example 147]
58.2 | CS(=O)(=O)Nc1cccc(NC(=O)c2cc(C(=O)Nc3cc(-c4ccccc4)[nH]n3)cs2)c1 [Example 148]
68.6 | CS(=O)(=O)Nc1cccc(NC(=O)c2cc(C(=O)NCCN3CCCCC3)cs2)c1 [Example 150]

Same assay, conditions: read-out: DHX9 Biochemical Inflection Point

Compound | pIC50
CS(=O)(=O)Nc1cccc(NC(=O)c2cnn(-c3ccccc3)c2)c1 [Example 1] | 6.47
Cc1cc(C)nc(-n2nc(C(=O)Nc3cccc(NS(C)(=O)=O)c3)cc2C)n1 [Example 15] | 6.24
CS(=O)(=O)Nc1cccc(NC(=O)c2csc(-c3nnc[nH]3)n2)c1 [Example 33] | 5.99
CS(=O)(=O)Nc1cccc(NC(=O)c2cc(-c3cccc(C(N)=O)c3)cs2)c1 [Example 50] | 7.34
CS(=O)(=O)Nc1cccc(NC(=O)c2cc(C(=O)Nc3cccc(OC(F)(F)F)c3)cs2)c1 [Example 120] | 7.30
CS(=O)(=O)Nc1cccc(NC(=O)c2cc(C(=O)Nc3cccc4c3CCO4)cs2)c1 [Example 123] | 7.23
CS(=O)(=O)Nc1cccc(NC(=O)c2cc(C(=O)NCc3ccc(CN4CCOCC4)cc3)cs2)c1 [Example 124] | 6.74
CS(=O)(=O)Nc1cccc(NC(=O)c2cc(C(=O)Nc3ccc(-c4ccncc4)cc3)cs2)c1 [Example 128] | 6.84
Cn1c(=O)n(C)c2cc(NC(=O)c3csc(C(=O)Nc4cccc(NS(C)(=O)=O)c4)c3)ccc21 [Example 131] | 7.28
COCc1cccc(NC(=O)c2csc(C(=O)Nc3cccc(NS(C)(=O)=O)c3)c2)c1 [Example 134] | 7.24
CS(=O)(=O)Nc1cccc(NC(=O)c2cc(C(=O)NC3CCc4ccccc43)cs2)c1 (stereo not drawn) [Example 136] | 6.90
CNC(=O)c1ccc(NC(=O)c2csc(C(=O)Nc3cccc(NS(C)(=O)=O)c3)c2)cc1 [Example 139] | 7.39
CS(=O)(=O)Nc1cccc(NC(=O)c2cc(C(=O)NCCc3c[nH]c4ccccc34)cs2)c1 [Example 140] | 6.72
CS(=O)(=O)Nc1cccc(NC(=O)c2cc(C(=O)NCc3nc4ccccc4[nH]3)cs2)c1 [Example 141] | 7.03
COc1ccc(OC)c(CCNC(=O)c2csc(C(=O)Nc3cccc(NS(C)(=O)=O)c3)c2)c1 [Example 142] | 6.78
CS(=O)(=O)Nc1cccc(NC(=O)c2cc(C(=O)NCc3n[nH]c4ccccc34)cs2)c1 [Example 144] | 6.84
CS(=O)(=O)Nc1cccc(NC(=O)c2cc(C(=O)NCc3ccc4[nH]ccc4c3)cs2)c1 [Example 145] | 6.98
CS(=O)(=O)Nc1cccc(NC(=O)c2cc(C(=O)Nc3ccc(CCO)cc3)cs2)c1 [Example 149] | 7.29
Cc1cc(C(=O)Nc2cccc(NS(C)(=O)=O)c2)nn1Cc1ccccc1 [Example 154, 1-benzyl-N-(3-methanesulfonamidophenyl)-5-methyl-1H-pyrazole-3-carboxamide] | 5.41
CS(=O)(=O)Nc1cccc(NC(=O)c2cc(NCc3ccccc3)cs2)c1 [Example 155, 4-(benzylamino)-N-(3-(methylsulfonamido)phenyl)thiophene-2-carboxamide] | 6.00
CS(=O)(=O)Nc1cccc(NC(=O)c2cc(C(=O)NCCC3CC3)cs2)c1 [Example 162] | 7.09

Continued, values first:

pIC50 | Compound
6.45 | CS(=O)(=O)Nc1cccc(NC(=O)c2ccn(-c3c(F)cccc3F)n2)c1 [Example 12]
6.18 | CC(=O)c1ccc(S(=O)(=O)Nc2ccc(C(=O)Nc3cccc(NS(C)(=O)=O)c3)cc2)cc1 [Example 20]
6.06 | CS(=O)(=O)Nc1cccc(NC(=O)c2ccc(N3CCCC3)cc2)c1 [Example 31]
6.43 | CS(=O)(=O)Nc1cccc(NC(=O)c2cccc(-n3cccn3)c2)c1 [Example 40]
6.55 | CS(=O)(=O)Nc1cccc(NC(=O)c2cnn(-c3ccccn3)c2)c1 [Example 41]
5.19 | CS(=O)(=O)Nc1cccc(NC(=O)c2cc(-c3cccs3)ccn2)c1 [Example 44]
6.73 | CS(=O)(=O)Nc1cccc(NC(=O)c2cc(-c3ccc(F)cc3)cs2)c1 [Example 53]
6.36 | CS(=O)(=O)Nc1cccc(NC(=O)c2cc(C(=O)Nc3ccccc3Oc3ccccc3)cs2)c1 [Example 115]
7.15 | CS(=O)(=O)Nc1cccc(NC(=O)c2cc(C(=O)NCc3ccc(N4CCOCC4)cc3)cs2)c1 [Example 116]
6.16 | CS(=O)(=O)Nc1cccc(NC(=O)c2cc(C(=O)Nc3ccc(Oc4ccccc4)cc3)cs2)c1 [Example 117]
7.00 | CC(C)Oc1ccc(NC(=O)c2csc(C(=O)Nc3cccc(NS(C)(=O)=O)c3)c2)cc1 [Example 118]
5.97 | CC(C)Oc1cccc(NC(=O)c2csc(C(=O)Nc3cccc(NS(C)(=O)=O)c3)c2)c1 [Example 121]
6.71 | CS(=O)(=O)Nc1cccc(NC(=O)c2cc(C(=O)Nc3ccc(OCCN4CCOCC4)cc3)cs2)c1 [Example 122]
7.19 | COc1cc(Cl)cc(NC(=O)c2csc(C(=O)Nc3cccc(NS(C)(=O)=O)c3)c2)c1 [Example 125]
6.94 | CC(C)(C)NC(=O)c1ccc(NC(=O)c2csc(C(=O)Nc3cccc(NS(C)(=O)=O)c3)c2)cc1 [Example 127]
7.05 | CS(=O)(=O)Nc1cccc(NC(=O)c2cc(C(=O)Nc3cnc4ccccn34)cs2)c1 [Example 129]
6.49 | COc1ccc(NC(=O)c2csc(C(=O)Nc3cccc(NS(C)(=O)=O)c3)c2)cc1 [Example 130]
6.77 | CS(=O)(=O)Nc1cccc(NC(=O)c2cc(C(=O)Nc3cccc(-c4cccnc4)c3)cs2)c1 [Example 133]
6.68 | CC(C)Oc1ccccc1NC(=O)c1csc(C(=O)Nc2cccc(NS(C)(=O)=O)c2)c1 [Example 135]
6.94 | CS(=O)(=O)Nc1cccc(NC(=O)c2cc(C(=O)Nc3ccccc3CC#N)cs2)c1 [Example 138]
7.04 | CS(=O)(=O)Nc1cccc(NC(=O)c2cc(C(=O)Nc3ccccc3CCO)cs2)c1 [Example 143]
7.41 | CS(=O)(=O)Nc1cccc(NC(=O)c2cc(C(=O)Nc3nc4ccccc4[nH]3)cs2)c1 [Example 146]
6.64 | Cc1nc(-c2cccc(NC(=O)c3csc(C(=O)Nc4cccc(NS(C)(=O)=O)c4)c3)c2)cs1 [Example 147]
5.27 | CS(=O)(=O)Nc1cccc(NC(=O)c2cc(C(=O)Nc3cc(-c4ccccc4)[nH]n3)cs2)c1 [Example 148]
6.99 | CS(=O)(=O)Nc1cccc(NC(=O)c2cc(C(=O)NCCN3CCCCC3)cs2)c1 [Example 150]

System: DHX9 (circBRIP1 mRNA in HCT116 cells)
Test: DHX9 circBRIP1 Cellular Target Engagement SYBR Green Assay
Assay type: cell-based
Conditions: Homo sapiens, HCT-116, circBRIP1 qPCR, 72 hours

Compound | pEC50
CS(=O)(=O)Nc1cccc(NC(=O)c2cnn(-c3ccccc3)c2)c1 [Example 1] | < 4.52
Cc1cc(C)nc(-n2nc(C(=O)Nc3cccc(NS(C)(=O)=O)c3)cc2C)n1 [Example 15] | < 4.52
CS(=O)(=O)Nc1cccc(NC(=O)c2csc(-c3nnc[nH]3)n2)c1 [Example 33] | < 4.52
CS(=O)(=O)Nc1cccc(NC(=O)c2cc(-c3cccc(C(N)=O)c3)cs2)c1 [Example 50] | < 4.52

Next, values leading:

pEC50 | Compound
< 4.52 | CS(=O)(=O)Nc1cccc(NC(=O)c2ccn(-c3c(F)cccc3F)n2)c1 [Example 12]
< 4.52 | CC(=O)c1ccc(S(=O)(=O)Nc2ccc(C(=O)Nc3cccc(NS(C)(=O)=O)c3)cc2)cc1 [Example 20]
< 4.52 | CS(=O)(=O)Nc1cccc(NC(=O)c2ccc(N3CCCC3)cc2)c1 [Example 31]
< 4.52 | CS(=O)(=O)Nc1cccc(NC(=O)c2cccc(-n3cccn3)c2)c1 [Example 40]
4.56 | CS(=O)(=O)Nc1cccc(NC(=O)c2cnn(-c3ccccn3)c2)c1 [Example 41]
< 4.52 | CS(=O)(=O)Nc1cccc(NC(=O)c2cc(-c3cccs3)ccn2)c1 [Example 44]
4.64 | CS(=O)(=O)Nc1cccc(NC(=O)c2cc(-c3ccc(F)cc3)cs2)c1 [Example 53]
